Article PMC10004634 (PLOS ONE, 2023)
Where two headings read alike, the source gives them in different places.

Assays:
Assay in all cases: biochemical
Parameters in all cases: KINOMEscan scanMAX competition binding, DNA-tagged kinases, qPCR read-out, percent control at 300 nM
[1] = target: T1, EPHB6 (Homo sapiens, UniProt O15197)
T1 sequence (O15197 1-1021): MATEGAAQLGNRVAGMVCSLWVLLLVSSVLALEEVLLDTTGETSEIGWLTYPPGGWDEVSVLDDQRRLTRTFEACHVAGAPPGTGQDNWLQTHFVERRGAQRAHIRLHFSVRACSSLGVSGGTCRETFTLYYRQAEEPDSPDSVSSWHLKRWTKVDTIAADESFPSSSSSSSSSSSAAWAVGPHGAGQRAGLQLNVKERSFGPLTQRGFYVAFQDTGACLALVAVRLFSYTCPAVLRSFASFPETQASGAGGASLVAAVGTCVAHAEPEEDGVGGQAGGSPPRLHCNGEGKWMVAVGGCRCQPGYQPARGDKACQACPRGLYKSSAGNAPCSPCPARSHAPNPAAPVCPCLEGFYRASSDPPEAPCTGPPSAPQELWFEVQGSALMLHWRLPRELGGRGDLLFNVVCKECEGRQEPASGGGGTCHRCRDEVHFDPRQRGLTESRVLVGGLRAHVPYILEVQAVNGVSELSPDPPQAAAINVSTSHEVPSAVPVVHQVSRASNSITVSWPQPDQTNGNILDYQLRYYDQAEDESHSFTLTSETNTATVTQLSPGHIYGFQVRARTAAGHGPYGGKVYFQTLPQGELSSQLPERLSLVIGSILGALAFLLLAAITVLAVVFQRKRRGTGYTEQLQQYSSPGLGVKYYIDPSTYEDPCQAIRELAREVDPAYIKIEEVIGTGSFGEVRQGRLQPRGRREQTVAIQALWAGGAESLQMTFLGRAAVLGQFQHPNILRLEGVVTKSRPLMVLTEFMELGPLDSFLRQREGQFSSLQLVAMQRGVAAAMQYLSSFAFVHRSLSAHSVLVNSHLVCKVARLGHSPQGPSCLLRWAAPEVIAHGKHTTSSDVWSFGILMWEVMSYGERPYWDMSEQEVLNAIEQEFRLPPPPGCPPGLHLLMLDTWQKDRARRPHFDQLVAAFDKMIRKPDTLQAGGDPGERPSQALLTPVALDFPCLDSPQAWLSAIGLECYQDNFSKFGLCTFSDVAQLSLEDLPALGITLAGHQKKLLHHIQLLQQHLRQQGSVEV

[2] = target: T2, NEK2 (Homo sapiens, UniProt P51955)
T2 sequence (P51955 1-445): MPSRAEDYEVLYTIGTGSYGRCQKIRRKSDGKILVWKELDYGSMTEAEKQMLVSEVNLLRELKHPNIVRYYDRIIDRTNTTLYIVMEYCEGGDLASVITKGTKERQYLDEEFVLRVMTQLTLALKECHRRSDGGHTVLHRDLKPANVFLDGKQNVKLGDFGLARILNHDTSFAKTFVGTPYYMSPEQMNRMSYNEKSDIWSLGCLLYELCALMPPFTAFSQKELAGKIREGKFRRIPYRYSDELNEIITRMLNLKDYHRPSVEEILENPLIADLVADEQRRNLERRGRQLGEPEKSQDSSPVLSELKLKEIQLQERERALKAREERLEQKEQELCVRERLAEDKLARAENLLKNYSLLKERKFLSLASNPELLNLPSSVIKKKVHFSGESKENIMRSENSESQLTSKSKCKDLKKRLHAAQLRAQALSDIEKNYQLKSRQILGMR

[3] = target: T3, FLT3(K663Q) (Homo sapiens, UniProt P36888, K663Q)
T3 sequence (P36888 1-993 K663Q): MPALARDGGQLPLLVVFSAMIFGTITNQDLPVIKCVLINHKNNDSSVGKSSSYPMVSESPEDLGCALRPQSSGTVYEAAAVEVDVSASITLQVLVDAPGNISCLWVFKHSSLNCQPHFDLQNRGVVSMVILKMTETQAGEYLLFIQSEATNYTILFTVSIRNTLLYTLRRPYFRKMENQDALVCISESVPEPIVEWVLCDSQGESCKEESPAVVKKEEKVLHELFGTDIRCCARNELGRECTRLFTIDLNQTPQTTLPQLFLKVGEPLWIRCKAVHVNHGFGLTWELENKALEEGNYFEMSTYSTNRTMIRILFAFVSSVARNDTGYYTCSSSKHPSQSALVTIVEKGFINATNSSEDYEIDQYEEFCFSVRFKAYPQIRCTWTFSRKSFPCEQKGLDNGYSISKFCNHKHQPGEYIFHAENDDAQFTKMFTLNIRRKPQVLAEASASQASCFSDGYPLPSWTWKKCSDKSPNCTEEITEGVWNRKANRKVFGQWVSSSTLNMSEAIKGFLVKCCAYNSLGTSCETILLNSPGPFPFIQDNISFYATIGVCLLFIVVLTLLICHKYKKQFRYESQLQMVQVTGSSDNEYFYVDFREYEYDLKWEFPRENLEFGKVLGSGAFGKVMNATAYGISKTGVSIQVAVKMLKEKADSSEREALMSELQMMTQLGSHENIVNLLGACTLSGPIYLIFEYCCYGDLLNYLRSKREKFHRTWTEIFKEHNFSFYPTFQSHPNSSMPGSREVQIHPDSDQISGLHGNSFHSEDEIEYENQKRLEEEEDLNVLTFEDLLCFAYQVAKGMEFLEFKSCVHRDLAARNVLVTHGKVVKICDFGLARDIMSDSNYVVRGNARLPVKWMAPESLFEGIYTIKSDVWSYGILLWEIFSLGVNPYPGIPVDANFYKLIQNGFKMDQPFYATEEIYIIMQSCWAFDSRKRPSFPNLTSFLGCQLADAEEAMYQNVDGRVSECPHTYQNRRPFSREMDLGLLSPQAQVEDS

[4] = read-out: Percent control / Tirabrutinib
[5] = read-out: Percent control / Ibrutinib
[6] = read-out: Percent control / Zanubrutinib
[7] = read-out: Percent control / Acalabrutinib

CC#CC(=O)N1CC[C@@H](n2c(=O)n(-c3ccc(Oc4ccccc4)cc3)c3c(N)ncnc32)C1 [Tirabrutinib]
remaining binding at 0.3 µM [1, 4]: 70% | remaining binding at 0.3 µM [2, 4]: 93%

C=CC(=O)N1CCC[C@@H](n2nc(-c3ccc(Oc4ccccc4)cc3)c3c(N)ncnc32)C1 [Ibrutinib]
remaining binding at 0.3 µM [1, 5]: 46% | remaining binding at 0.3 µM [2, 5]: 84% | remaining binding at 0.3 µM [3, 5]: 45%

C=CC(=O)N1CCC([C@@H]2CCNc3c(C(N)=O)c(-c4ccc(Oc5ccccc5)cc4)nn32)CC1 [Zanubrutinib]
remaining binding at 0.3 µM [1, 6]: 96% | remaining binding at 0.3 µM [2, 6]: 90% | remaining binding at 0.3 µM [3, 6]: 61%

CC#CC(=O)N1CCC[C@H]1c1nc(-c2ccc(C(=O)Nc3ccccn3)cc2)c2c(N)nccn12 [Acalabrutinib]
remaining binding at 0.3 µM [1, 7]: 85% | remaining binding at 0.3 µM [2, 7]: 95% | remaining binding at 0.3 µM [3, 7]: 87%
